Experimental data: patent US12102685B2, “Immodulator peptides covalently modified with small molecules” (priority 2020, dated 2024)
Marks after values point to notes of the source that are not given here. Peptide text beside a SMILES is read from it.

How the values were obtained:
rat scald model = assay: Rat scald model, nephrilin plus or minus metal (x5A); format: in vivo, Sprague Dawley rats; conditions: male rats, burn, 4 mg/kg sc once daily days 1-7
Procedure: Experiment x5A. Nephrilin peptide (IM3N1) is a designed inhibitor of Rictor complex (also known as mTORC2), an evolutionarily conserved assembly believed to modulate responses to cellular stress. […] This study explores the effect of nephrilin plus iron formulations on clinically relevant outcomes in the rat scald model. Animals were treated with nephrilin by subcutaneous bolus injection on days 1-7 post-burn. Equimolar ferric iron in the formulation improved the positive systemic effects of nephrilin on kidney function, glycemic control, oxidative stress, early hyperinflammation, late inflammasome activation, hyperangiogenesis and body mass, all variables previously shown to bear upon clinically relevant burn injury outcomes. The rat scald model and measurement of clinically relevant variables are disclosed in U.S. Pat. No. 10,369,191. Adult Sprague Dawley rats of both sexes (250-300 gm, Charles River Laboratories, Wilmington, MA, USA) were injected with nephrilin peptide plus or minus equimolar metal (zinc, ferrous iron or ferric iron) once daily by subcutaneous bolus injection, days 1-7; Treatment group sizes were (n=8) for each sex unless otherwise indicated: group S=sham-treated; group B=burn+vehicle; group N1=burn+4 mg/kg nephrilin; group N1/Zn2=burn+4 mg/kg nephrilin/zinc chloride; group N1/Fe2=burn+4 mg/kg nephrilin/ferrous sulphate; groups N1/Fe3 (2, 4 or 8)=burn+2, 4, or 8 mg/kg nephrilin/equimolar ferric chloride. The first dose was administered after completion of the scald procedure. Injection volume was 400 uL. Control animals received the same volume of vehicle.
To make global comparisons of treatment efficacy, we converted values to z-scores. All scores within an efficacy class were averaged, allowing allocation of equal weight to efficacy classes. A composite z-score (average z score across all 7 effect classes) is shown in the last row of the table. This allows direct comparison of efficacy across treatment groups. The sham treatment involves manipulating the animals exactly as in the burn group, but without the burn treatment. The efficacy value for the sham (0.82) is thus the positive control. The negative control is the Burn+vehicle group (−0.61). […] Compared to vehicle or nephrilin treatment alone (−0.31), nephrilin with ferric iron (0.27) is at least twice as efficacious overall. Male rats in the scald model were exposed to vehicle, 2, 4 and 8 mg/kg nephrilin complexed with ferric iron.

burn wound length = assay: Post-burn wound healing study (x8A); format: in vivo, rats; conditions: burn-group treatment as labelled (4 mg/kg), then vehicle weeks 2-6
Procedure: Experiment x8A. Male rats treated with 4 mg/kg nephrilin peptide IM3N1 for 2 weeks in Example 5 were subsequently treated 3× weekly (Mon-Wed-Fri) for 4 weeks with vehicle (n=12) or with 1 mg/kg IM3vlp peptide (n=12) by subcutaneous bolus injection (200 uL volume). Longitudinal wound length between the hairlines was measured at 6 weeks, and this value was corrected for nose-to-ear length and width of each animal. The mean resulting value (in arbitrary units) is shown below.

THP1-Dual monocytes = assay: Succinic acid in THP1-Dual supernatant (x4A); format: cell-based
Procedure: Immune modulation functions of immodulator peptides were measured using the monocyte reporter cell line THP1-Dual (Invivogen, San Diego, CA), which provides convenient readouts for STING and NF-kappa-B pathways. Optionally, succinic acid, cytokine and chemokine production were also measured. THP1-Dual cell line was obtained from Invivogen. Cells were grown in a T-75 flask in RPMI Medium containing 20% fetal bovine serum, blasticidin ([…]), zeocin ([…]) and penicillin-streptomycin at 37° C. in a humidified, 5% CO2 incubator. Cells ([…], 8,000 cells/well) were plated in a 96-well plate and incubated overnight at 37 °C in a humidified, 5% CO2 incubator. Next day, […] of compounds were added (quadruplicate wells). After 24 hour incubation with the compound, supernatants were harvested and stored at 4° C. prior to assay.
STING activity using reagents QuantiBlu and QuantiLuc respectively, according to the manufacturer's recommendations (Invivogen, San Diego, CA). Succinic acid was measured by using a kit from Megazyme Inc (Cambridge, MA). Control value of activity was set to 100 in each assay. […] PAM3C=25 ng/ml PAM3CSK4 (TLR1/2 inducer); Poly(I:C)=10 ug/ml (TLR3 inducer); PAM2C=25 ng/ml PAM2CSK4 (TLR2/6 inducer); KIN14=4 uM KIN-1400 (RIG-I inducer); cytB=1 uM cytosporone B (Nur77 inducer); C-178=1 uM STING inhibitor; NFkBi=50 ug/ml NFkB inhibitor peptide; SB2021=10 uM p38MAPK inhibitor; *p<0.05, **p<0.01 vs IM3 control; #p<0.01 vs “no inducer” control; SUCC=succinic acid; nd=not done; Peptide was added to cells at 400 nM.
Peptides were added to cells at 400 nM. […]

RGVTEDYLRLETLVQKVVSKGFYKKKQCRPSKGRKRGFCW [IM3N1]
1: early inflammation (24-hr plasma IL-6) (rat scald model): 50.6 ± 6.1 pg/mL
2a: 14-day plasma inflammasome marker IL18 (rat scald model): 178.1 ± 19.3 pg/mL
2b: 14-day plasma inflammasome marker IL1b (rat scald model): 124.3 ± 132 pg/mL
3a: 14-day plasma hyperangiogenesis marker VEGF-A (rat scald model): 56.1 ± 11.7 pg/mL
3b: 14-day plasma hyperangiogenesis marker CCL5 (rat scald model): 609.7 ± 283 pg/mL
3c: 14-day plasma hyperangiogenesis marker CXCL5 (rat scald model): 1910 ± 380 pg/mL
4: glycemic control, 14-day GTT (AUC) (rat scald model): 139.3 ± 48.6 mg·dL·h
5: kidney function, 14-day plasma creatinine (rat scald model): 0.34 ± 0.13 mg/dL
6: systemic oxidative stress, 14-day plasma OHDG (rat scald model): 585 ± 137 pg/mL
7: weight loss (slope) (rat scald model): 2.32 ± 1.01
3d: hyperangiogenesis marker PctRedPix (rat scald model): 16.51 ± 3.02
Avg: composite z-score (average z score across all 7 effect classes) (rat scald model; listed as N1, 4 mg/kg): −0.31 ± 0.35
Avg: composite z-score (average z score across all 7 effect classes) (rat scald model; listed as nephrilin, 4 mg/kg): −0.31
corrected longitudinal wound length at 6 weeks (burn wound length): 131.3 ± 18.6 arbitrary units

N=C(N)NCCC[C@H](NC(=O)CNC(=O)[C@H](CCCCN)NC(=O)[C@H](CO)NC(=O)[C@@H]1CCCN1C(=O)[C@H](CCCNC(=N)N)NC(=O)[C@H](CS)NC(=O)[C@H](CCC(N)=O)NC(=O)[C@H](CCCCN)NC(=O)[C@H](CCCCN)NC(=O)[C@H](CCCCN)NC(=O)[C@H](Cc1ccc(O)cc1)NC(=O)[C@H](Cc1ccccc1)NC(=O)CNC(=O)[C@H](CCCCN)NC(=O)[C@@H](N)CCCCN)C(=O)N[C@@H](CCCCN)C(=O)N[C@@H](CCCNC(=N)N)C(=O)NCC(=O)N[C@@H](Cc1ccccc1)C(=O)N[C@@H](CS)C(=O)N[C@@H](Cc1c[nH]c2ccccc12)C(=O)O [IM3] (H-KKGFYKKKQCRPSKGRKRGFCW-OH; N-terminus and C-terminus assumed)
SUCC (THP1-Dual monocytes; peptide 400 nM + KIN1400 (= 100)): 100
SUCC (THP1-Dual monocytes; peptide 400 nM + KIN1400 + C-178 1 uM): 103.2
SUCC (THP1-Dual monocytes; peptide 400 nM + KIN1400 + NFkBi 50 ug/ml): 99.2
SUCC (THP1-Dual monocytes; peptide 400 nM + KIN1400 + SB2021 10 uM): 131.6*
SUCC (THP1-Dual monocytes; peptide 400 nM + KIN1400 + cytB 1 uM): 96.1
SUCC (THP1-Dual monocytes; peptide 400 nM + PAM2C (= 100)): 100
SUCC (THP1-Dual monocytes; peptide 400 nM + PAM2C + C-178 1 uM): 96.1
SUCC (THP1-Dual monocytes; peptide 400 nM + PAM2C + NFkBi 50 ug/ml): 100.1
SUCC (THP1-Dual monocytes; peptide 400 nM + PAM2C + SB2021 10 uM): 93.4
SUCC (THP1-Dual monocytes; peptide 400 nM + PAM2C + cytB 1 uM): 85.1*
SUCC (THP1-Dual monocytes; peptide 400 nM + PAM3C): 100
SUCC (THP1-Dual monocytes; peptide 400 nM + PAM3C + C-178 1 uM): 95.3
SUCC (THP1-Dual monocytes; peptide 400 nM + PAM3C + NFkBi 50 ug/ml): 101.5
SUCC (THP1-Dual monocytes; peptide 400 nM + PAM3C + SB2021 10 uM): 95.8
SUCC (THP1-Dual monocytes; peptide 400 nM + PAM3C + cytB 1 uM): 95.4
